We go through 15 molecules from patent US20250223306A1, “TEAD INHIBITORS AND METHODS OF USE” (Sporos BioDiscovery, Inc., priority 2022, published 2025).

Each structure is given as a SMILES string. Some results are limits rather than exact numbers.

The test system of assay [1] is NCI-H226 cells. Description: Proliferation, Cell Titer One assay. The class given is cell-based. As to conditions: 6 days. The procedure: (§1) Cell proliferation of a TEAD dependent NF2-null mesothelioma cell line, NCI-H226, and a TEAD-non-dependent mesothelioma cell line, NCI-H28 was assayed using two different protocols: • a) CellTiter-Glo 2.0 (Promega #G9243). The effect of the TEAD inhibitors disclosed herein on cell proliferation was determined in TEAD1-genetically dependent cell line NCI-H226 (responder cell line) and TEAD-independent cell lines (NCI-H23, HEK293T), as non-responder, negative control. Cells were seeded in 96-well plates (Thermo Scientific #167008) in growth media (RPMI-1640, Gibco #61870-010) for NCI-H226 and NCI-H23 or DMEM (Gibco #31966-021, HEK293T) with 10% Heat Inactivated Fetal Bovine Serum (Gibco 10500-064) at 800 (NCI-H226 and HEK-293T) or 2000 (NCI-H23) cells per well at 37° C., 5% CO2, humidified incubator; 24 hours later, fresh growth media containing test compound or DMSO vehicle was added and incubated with the cells for 144 hrs. TEAD inhibitor stocks were made at a 1000× fold excess in DMSO, and a dose response test compound dose range of 10,000 to 0.1 nM was used. Each treatment was carried out in triplicate. After 144 hrs of treatment, relative cell viability numbers were determined using the CellTiter-Glo 2.0 assay following the manufacturer's instructions. Test plates and CellTiter-Glo 2.0 reagent were allowed to equilibrate to room temperature. CellTiter-Glo 2.0 reagent was added at 1:1 reagent to media ratio to the 96-well cell plates, plates were placed on a plate shaker for 2 minutes and then incubated at room temperature for a further 10 minutes to allow complete cell lysis to occur. The mix was then transferred to white, 96-well luminometer assay plates (Greiner Bio One #655075). Luminescence was quantified using a CLARIOStar Plus multi-mode plate reader (BMG Labtech) in luminescence detection mode with the recommended settings (ultra-Glo pre-set: emission 545-50 nm with autofocus and enhanced dynamic range on). Relative cell density was expressed as a function of inhibitor concentration, with respect to DMSO-only control wells. Data where plotted using GraphPad Prism and IC50 values for the biological effect were calculated using the EC50 non-linear fit function using a sigmoidal, 4-parameter logistic, least squares fit with no constraints. • b) Cell Titer One (Promega, #G3582). The effect of the TEAD inhibitors disclosed herein on cell proliferation was also determined using the Promega Substrate Cell Titer Aqueous One Solution Reagent. The TEAD inhibitors were evaluated for the effects on cell proliferation responder (H226) and non-responder negative control cancer cell lines (CAMA1, H28), as well as non-transformed normal human cells (HUVEC, NHDF). Dissociated cells were resuspend in media (depending on cell line, either in DMEM, RPMI, or EMEM all with 10% FBS, with gentamicin as an antibiotic). Cells were seeded at 100 μL/well at 750 cells per well in 96-well plates and allowed to settle and attach. After an incubation of 24 hrs (37° C., 5% CO2, humidified incubator), 100 μL of test compound-containing media was added. A dilution series of 2000× concentrated stock of test compounds was prepared in DMSO, for final concentrations from 0.1 to 10,000 nM. After addition of test compound-containing media, cells were incubated for 6 days at 37° C., 5% CO2, humidified incubators). To measure cell density, 20 μL of Promega Substrate Cell Titer 96 Aqueous One Solution Reagent (Promega, #G3582) to each well was added according to the manufacturer's instructions. Plates were incubated at 37° C. for usually 3-8 hrs, to reach in the control cells (without compound) an OD of 1.5 at 490 nm. The OD was measured using Vmax [Molecular Devices] spectrophotometer plate reader. Media only-wells were used as background controls and cell densities normalized to DMSO vehicle control. ECs were taken as the concentration achieving 50% of maximal growth inhibition.

Assay [2] has as its system NCI-H226 cells. Description: Proliferation and cell viability, CellTiter-Glo 2.0 (CTG) assay. The assay is classed as cell-based. Conditions: 144 hrs. The procedure: as §1
In assay [3] the test system is NCI-H23 cells. Described as above. The assay is classed as cell-based. As to conditions: 144 hrs. The procedure: as §1
Assay [4] concerns the target TEAD2 (Homo sapiens, UniProt Q15562). Put plainly: TEAD thermal shift assay (TSA). The class given is binding. The source says:
(§2) Thermal shift assay (TSA) is a biophysical method to evaluate stability of proteins with change in temperature. The assay measures thermal denaturation temperature in varying conditions such as different drug concentration. For this example, fluorogenic dye was used that bind to unfolded proteins. SYPRO Orange binds non-specifically to hydrophobic surfaces, and water strongly quenches its fluorescence. When the protein unfolds, the exposed hydrophobic surfaces bind the dye, resulting in an increase in fluorescence by excluding water. Detergent micelles also bind the dye and increase background noise dramatically. Binding of small molecules to proteins leads to a stabilization against to thermal denaturation with the degree of thermal stabilization proportional to the strength of binding.
(§3) The study described in this example investigated the change in melting temperature (ΔTm) of TEAD isoforms 1˜4 when treated with TEAD inhibitors. Compound 1-1-a known strong TEAD1 and weak TEAD2 inhibitor; as well as Compound 1-4-a pan-TEAD inhibitor were used as controls.
(§4) Tris-HCL was dissolved in 5 mL of Cell culture grade water and allowed to dissolve completely. The pH was adjusted to 8 using NaOH. Additional assay buffer components were added in the order listed above. The buffer was mixed slowly.
(§5) Assay buffer was prepared according to the procedures outlined above and dispensed into test wells. Spyro orange was added to a concentration of 5× in the assay buffer, followed by test compound stock solution which was added to a concentration of 10 μM or 30 μM in the assay buffer.
(§6) The melt cycle was performed in Bio-RAD PCR instrument from 20-95° C. with ramp rate of 1° C./min.

The target of assay [5] is TEAD4 (Homo sapiens, UniProt Q15561). Put plainly: TEAD thermal shift assay (TSA). The class given is binding.
Sequence of TEAD4 (Q15561 whole entry): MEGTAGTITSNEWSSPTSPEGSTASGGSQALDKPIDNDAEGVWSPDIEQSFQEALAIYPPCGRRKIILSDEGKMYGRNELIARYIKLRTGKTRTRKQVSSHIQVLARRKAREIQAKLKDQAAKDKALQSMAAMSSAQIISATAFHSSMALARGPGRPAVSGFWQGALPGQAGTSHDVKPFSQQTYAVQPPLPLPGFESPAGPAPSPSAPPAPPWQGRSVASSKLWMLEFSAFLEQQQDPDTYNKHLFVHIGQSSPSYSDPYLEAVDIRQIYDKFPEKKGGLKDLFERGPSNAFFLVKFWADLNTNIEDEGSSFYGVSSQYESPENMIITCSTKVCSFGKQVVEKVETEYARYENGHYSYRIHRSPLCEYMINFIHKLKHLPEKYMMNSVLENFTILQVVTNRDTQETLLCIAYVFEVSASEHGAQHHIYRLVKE
From the text: as §2, §3, §4, §5, §6

For assay [6], the target named is TEAD3 (Homo sapiens, UniProt Q99594). Description: TEAD thermal shift assay (TSA). The assay is classed as binding.
Sequence of TEAD3 (Q99594 whole entry): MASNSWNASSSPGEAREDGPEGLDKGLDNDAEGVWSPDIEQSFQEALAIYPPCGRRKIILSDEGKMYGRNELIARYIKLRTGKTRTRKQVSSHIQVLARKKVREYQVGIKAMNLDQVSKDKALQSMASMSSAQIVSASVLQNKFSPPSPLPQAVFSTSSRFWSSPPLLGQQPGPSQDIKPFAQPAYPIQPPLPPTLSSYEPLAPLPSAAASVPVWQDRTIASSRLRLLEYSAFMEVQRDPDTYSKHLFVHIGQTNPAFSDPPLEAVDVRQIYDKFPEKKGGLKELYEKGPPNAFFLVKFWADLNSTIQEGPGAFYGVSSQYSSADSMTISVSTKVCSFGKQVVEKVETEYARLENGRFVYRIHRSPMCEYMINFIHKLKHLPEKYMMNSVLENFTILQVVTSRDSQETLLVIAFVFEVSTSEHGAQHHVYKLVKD
From the text: as §2, §3, §4, §5, §6

In assay [7] the target is TEAD1 (Homo sapiens, UniProt P28347). Description: TEAD thermal shift assay (TSA). The class given is binding.
Sequence of TEAD1 (P28347 whole entry): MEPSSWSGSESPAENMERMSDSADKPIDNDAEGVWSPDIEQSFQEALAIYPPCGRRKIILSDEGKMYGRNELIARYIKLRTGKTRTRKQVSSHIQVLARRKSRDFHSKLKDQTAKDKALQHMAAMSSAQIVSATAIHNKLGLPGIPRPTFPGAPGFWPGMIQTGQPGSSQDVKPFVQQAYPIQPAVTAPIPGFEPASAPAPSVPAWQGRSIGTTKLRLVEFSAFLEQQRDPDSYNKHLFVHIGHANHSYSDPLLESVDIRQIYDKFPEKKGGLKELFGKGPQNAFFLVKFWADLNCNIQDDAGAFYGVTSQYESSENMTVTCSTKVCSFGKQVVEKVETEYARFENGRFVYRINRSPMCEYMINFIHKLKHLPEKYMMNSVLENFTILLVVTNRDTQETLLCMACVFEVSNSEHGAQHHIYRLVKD
From the text: as §2, §3, §4, §5, §6

The mark [8] stands for this setting: Homo sapiens, NCI-H226, 144 h, H226-responder cell line.
[9] abbreviates: Homo sapiens, NCI-H23, H23-non-responder cell line.
[10] abbreviates: ratio of protein to compound 1:1.
[11] abbreviates: ratio of protein to compound 1:3.

Sequence of TEAD2 (Q15562 whole entry): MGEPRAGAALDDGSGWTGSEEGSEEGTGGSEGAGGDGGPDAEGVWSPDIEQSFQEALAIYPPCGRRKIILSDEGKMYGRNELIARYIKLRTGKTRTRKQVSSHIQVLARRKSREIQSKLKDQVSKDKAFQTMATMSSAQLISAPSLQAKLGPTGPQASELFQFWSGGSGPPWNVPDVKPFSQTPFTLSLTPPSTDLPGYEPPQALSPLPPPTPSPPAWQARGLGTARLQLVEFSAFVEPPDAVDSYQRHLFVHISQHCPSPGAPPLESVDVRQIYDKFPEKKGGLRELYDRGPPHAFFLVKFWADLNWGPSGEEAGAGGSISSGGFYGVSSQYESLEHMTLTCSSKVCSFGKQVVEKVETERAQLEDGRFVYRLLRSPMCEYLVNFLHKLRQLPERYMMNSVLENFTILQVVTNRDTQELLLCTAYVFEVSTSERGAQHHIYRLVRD

Consider `O=C(NCc1ncco1)c1cnc2c(C3=CCC(C(F)(F)F)CC3)cccc2c1` (single isomer, unassigned) [Compound 12, N-(oxazol-2-ylmethyl)-8-(4-(trifluoromethyl)cyclohex-1-en-1-yl)quinoline-3-carboxamide], for which the 50% inhibitory concentration (IC50) in assay [1] (Homo sapiens, NCI-H226, 144 h) is 200 to 1000 nM; in assay [2] (setting [8]), less than 200 nM; in assay [3] (setting [9]), greater than 1000 nM.
`O=C(NCc1ncco1)c1cnc2c(C3=CCC(C(F)(F)F)CC3)cccc2c1` (single isomer, unassigned) [Compound 13, N-(oxazol-2-ylmethyl)-8-(4-(trifluoromethyl)cyclohex-1-en-1-yl)quinoline-3-carboxamide]: the IC50 in assay [1] was less than 200 nM; in assay [2] (H226-responder cell line), less than 200 nM; in assay [3] (H23-non-responder cell line), greater than 1000 nM.
With `C[C@H](NC(=O)c1ccc2c(-c3ccc(C(F)(F)F)cc3)cccc2c1)c1cccc(N)n1` [Compound 1-4, reference compound], the “TEAD2 ΔTm” value in assay [4] (setting [10]) turned out to be 5 °C; in assay [4] (setting [11]), 7 °C. Also, the results for the “TEAD4 ΔTm” value in assay [5] (setting [10]) and in assay [5] (setting [11]) were 5 °C and 9 °C, respectively. In addition, the entries for the “TEAD3 ΔTm” value in assay [6] (setting [10]) and in assay [6] (setting [11]) were 5 °C and 9 °C, respectively. Also, the “TEAD1 ΔTm” value in assay [7] (setting [10]) was determined as 10 °C; in assay [7] (setting [11]), 12 °C. Also, the “thermal shift / binding across TEAD isoforms, in words” value in assay [7] (summary of Table 14 over TEAD1-4) is “thermal shifts for all four TEAD isoforms”.
Consider `O=C(NCc1ccccn1)c1cnc2c(C3=CCC(C(F)(F)F)CC3)cccc2c1` (stereo not shown) [Compound 5, N-(pyridin-2-ylmethyl)-8-(4-(trifluoromethyl)cyclohex-1-en-1-yl)quinoline-3-carboxamide], for which the half-inhibitory concentration (IC50) in assay [1] (Homo sapiens, NCI-H226, 144 h) was less than 200 nM; in assay [2] (setting [8]) it was less than 200 nM; in assay [3] (setting [9]), greater than 1000 nM.
As to `CC(C)NC(=O)c1cnc2c(C3=CCC(F)(F)CC3)cccc2c1` [Compound 26, 8-(4,4-difluorocyclohex-1-en-1-yl)-N-isopropylquinoline-3-carboxamide], the IC50 in assay [1] (Homo sapiens, NCI-H226, 144 h) was less than 200 nM; in assay [2] (Homo sapiens, NCI-H226, H226-responder cell line), less than 200 nM.
Regarding `C[C@H](NC(=O)c1cnc2c(C3=CCC(F)(F)CC3)cccc2c1)c1ccccn1` [Compound 27, (S)-8-(4,4-difluorocyclohex-1-en-1-yl)-N-(1-(pyridin-2-yl)ethyl)quinoline-3-carboxamide], the half-maximal inhibitory concentration (IC50) in assay [1] (Homo sapiens, NCI-H226, 144 h) is less than 200 nM; in assay [2] (setting [8]) it was less than 200 nM.
Regarding `O=C(NCc1ncco1)c1cnc2c(C3=CCC(F)(F)CC3)cccc2c1` [Compound 29, 8-(4,4-difluorocyclohex-1-en-1-yl)-N-(oxazol-2-ylmethyl)quinoline-3-carboxamide], the half-maximal inhibitory concentration (IC50) in assay [1] (Homo sapiens, NCI-H226, 144 h) was greater than 1000 nM; in assay [2] (setting [8]), 200 to 1000 nM.
For `CC(C)NC(=O)c1cnc2c(C3=CCC(C)(C)CC3)cccc2c1` [Compound 30, 8-(4,4-dimethylcyclohex-1-en-1-yl)-N-isopropylquinoline-3-carboxamide], in that order: less than 200 nM and less than 200 nM.
As for `C[C@H](NC(=O)c1cnc2c(C3=CCC(C)(C)CC3)cccc2c1)c1ccccn1` [Compound 31, (S)-8-(4,4-dimethylcyclohex-1-en-1-yl)-N-(1-(pyridin-2-yl)ethyl)quinoline-3-carboxamide], the half-inhibitory concentration (IC50) in assay [1] (Homo sapiens, NCI-H226, 144 h) was greater than 1000 nM; in assay [2] (setting [8]), less than 200 nM.
In turn, `C[C@H](NC(=O)c1cnc2c(C3=CCCCC3)cccc2c1)c1ccccn1` [Compound 35, (S)-8-(cyclohex-1-en-1-yl)-N-(1-(pyridin-2-yl)ethyl)quinoline-3-carboxamide] showed an IC50 in assay [1] (Homo sapiens, NCI-H226, 144 h) of 200 to 1000 nM.
On the same count and under the same terms, as for `C[C@@H](CO)NC(=O)c1cnc2c(C3=CCCCC3)cccc2c1` [Compound 36, (S)-8-(cyclohex-1-en-1-yl)-N-(1-hydroxypropan-2-yl)quinoline-3-carboxamide], the figure is greater than 1000 nM; as for `O=C(NCc1ncco1)c1cnc2c(C3=CCCCC3)cccc2c1` [Compound 37, 8-(cyclohex-1-en-1-yl)-N-(oxazol-2-ylmethyl)quinoline-3-carboxamide], greater than 1000 nM.
As to `CNC(=O)c1cnc2c(C3=CCC(C(F)(F)F)CC3)cccc2c1` (stereo not shown) [Compound 38, N-methyl-8-(4-(trifluoromethyl)cyclohex-1-en-1-yl)quinoline-3-carboxamide], the concentration for half-maximal inhibition (IC50) in assay [1] (Homo sapiens, NCI-H226, 144 h) was 200 to 1000 nM; in assay [2] (setting [8]), less than 200 nM.
Take `O=C(NCCO)c1cnc2c(C3=CCC(C(F)(F)F)CC3)cccc2c1` (stereo not shown) [Compound 39, N-(2-hydroxyethyl)-8-(4-(trifluoromethyl)cyclohex-1-en-1-yl)quinoline-3-carboxamide]: the IC50 in assay [1] (Homo sapiens, NCI-H226, 144 h) is less than 200 nM; in assay [2] (setting [8]) it was less than 200 nM.
As to `COCCNC(=O)c1cnc2c(C3=CCC(C(F)(F)F)CC3)cccc2c1` (stereo not shown) [Compound 40, N-(2-methoxyethyl)-8-(4-(trifluoromethyl)cyclohex-1-en-1-yl)quinoline-3-carboxamide], the IC50 in assay [1] (Homo sapiens, NCI-H226, 144 h) was 200 to 1000 nM; in assay [2] (setting [8]), less than 200 nM.
